These results are taken from patent publication US9441014B2, “Skin permeating and cell entering (SPACE) peptides and methods of use thereof” (The Regents of the University of California, priority 2010, dated 2016).

Data set [1] has as its system porcine skin. Description: Peptide penetration into porcine skin (confocal microscopy). In kind it is in vitro ADME. The settings on record: 200 μL of 1 mg/mL, 24 hours. The method, then: (§1) The ability of the SPACE peptide to penetrate porcine skin when removed from phage was tested as follows. Full thickness porcine skin was obtained and prepared as described above. Fluorescently labeled peptides, 200 μL of a 1 mg/mL solution, were placed in the donor compartment of the FDC. After 24 hours, the remaining solution in the donor compartment was removed and the FDC was dismantled. The skin sample was retrieved and rinsed with DI water to remove excess peptide or peptide complex on the surface of the skin.

The test system of data set [2] is human skin. Kind of data set: Peptide penetration in human skin (confocal microscopy). In kind it is in vitro ADME. As to the method: as §1, with “human” for “porcine”, “phage and conjugated to an exemplary small molecule in the form of a fluorescent tag” for “phage”, “from the National Disease Research Interchange. […]” for “and prepared as described above.”
Data set [3] deals with mouse skin. Kind of data set: Peptide penetration into mouse skin in-vivo. As to the method:
The ability of the SPACE peptide to penetrate mouse skin in-vivo was tested as follows. 200 μl of fluorescently labeled peptide (1 mg/ml) was applied on the skin of a mouse. Penetration was assessed at various time points by harvesting the skin, sectioning it and observing under a microscope.

The test system of data set [4] is porcine skin. Kind of data set: Inulin permeability of porcine skin after co-incubation with peptide. In kind it is in vitro ADME.
Data set [5] concerns human keratinocytes. Kind of data set: MTT assay on keratinocyte cultures. The settings on record: 0.1-1.0 mg/mL. In kind it is cell-based. As to the method:
(a) Peptide internalization (percent of control) for control peptide and SPACE peptide at 4° C. and with the endocytosis inhibitors deoxy-D-glucose, chlorpromazine, nystatin, and EIPA in human keratinocytes. (b) Cell proliferation of human keratinocytes in the presence of control peptide (open bars) or SPACE peptide (closed bars) at 0.1 mg/mL and 1.0 mg/mL. Error cars indicate SD (N=4).
Background: Tetrazolium assays rely on reduction of a dye to a coloured formazan, in cell work by metabolically active cells.

For data set [6], the system named is porcine skin. In kind it is in vitro ADME. The method, then: The ability of the SPACE peptide to carry macromolecular cargos across the SC was tested as follows. Full thickness porcine skin was obtained and prepared as described above. The peptide was first conjugated to the macromolecule as described in greater detail below and then the peptide-macromolecule complex was placed into the donor compartment of the FDC. After 24 hours, the remaining solution in the donor compartment was removed and the FDC was dismantled. The skin sample was retrieved and rinsed with DI water to remove excess peptide complex on the surface of the skin.
To conjugate the peptide to the macromolecule streptavidin, 80 μL of a 1 mg/mL biotinylated peptide solution was incubated with 20 μL of a 2 mg/mL streptavidin-Alexa Fluor 488 conjugate (Invitrogen) solution and incubated at room temperature for 30 minutes. The resulting solution was then placed into the donor compartment of the FDC. Skin samples were harvested after 24 hours and imaged as described above.
The ability of the SPACE peptide to carry quantum dots across the SC was also tested. For the delivery of quantum dots into the skin, 198 μL of a 100 ng/mL biotinylated peptide solution was incubated with 2 μL of QDot 525 streptavidin conjugate (Invitrogen) for 1 hour at room temperature. The 200 μL suspension was then placed into the donor compartment of the FDC. […]

The subject of data set [7] is green fluorescent protein (GFP) in GFP-expressing endothelial cells. Kind of data set: GFP knockdown in GFP-expressing endothelial cells. It counts as cell-based. The method, then:
GFP-expressing endothelial cells (ATCC) were grown in Dulbecco's Modified Eagle's Medium supplemented with 10% fetal bovine serum. GFP siRNA, 5′-GACGUAAACGGCCACAAGUUC N6-3′ (SEQ ID NO:26) (Dharmacon), was conjugated to fluorescently labeled peptide (containing a free carboxyl group) through EDC chemistry.
A 10 mM peptide solution was incubated with a 10 mM solution of N-(3-Dimethylaminopropyl)-N′-ethylcarbodiimide hydrochloride (EDAC, Sigma) and a 9.5 mM solution of N-Hydroxysulfosuccinimide sodium salt (NHS, Sigma) in equal parts in MES buffer (pH 5.5) for 15 minutes. The amine modified siRNA was then added to the mixture to conjugate the peptide to siRNA and allowed to mix overnight.
The peptide-siRNA complex was added to the appropriate cell culture media to obtain a final concentration of 1 μM siRNA. The media along with peptide-siRNA was then added to the cells and allowed to incubate for 48 hours. Cells were imaged using confocal microscopy and image analysis was performed using ImageJ to determine the overall fluorescence intensity for each cell.

Read-outs that look alike come from different tables or passages of the source. Residues, ends and D or L forms follow the SMILES beside them.

`C[C@H](N)C(=O)N[C@H]1CSSC[C@@H](C(=O)NCC(=O)O)NC(=O)[C@H](CO)NC(=O)[C@H](CCC(N)=O)NC(=O)[C@H]([C@@H](C)O)NC(=O)[C@H](CCC(N)=O)NC(=O)CNC(=O)[C@H](Cc2c[nH]cn2)NC(=O)[C@H]([C@@H](C)O)NC1=O` [control peptide] (HELM PEPTIDE1{A.C.T.H.G.Q.T.Q.S.C.G}$PEPTIDE1,PEPTIDE1,2:R3-10:R3$$$V2.0; N-terminus and C-terminus assumed): in data set [1], the “penetration of fluorescently labeled peptide into porcine skin” value is “No significant penetration”. Besides, in data set [2] (top view looking down on SC, 24 hours), the “penetration/localization in human skin observed from the top” value is recorded as “no significant penetration”. Besides, in data set [3] (200 μl of 1 mg/ml topical), the “penetration into mouse skin in vivo” value was “lack of skin penetration in vivo”.
Turning to `C[C@H](N)C(=O)N[C@H]1CSSC[C@@H](C(=O)NCC(=O)O)NC(=O)[C@H](CCC(N)=O)NC(=O)[C@H](Cc2c[nH]cn2)NC(=O)[C@H](CCC(N)=O)NC(=O)[C@H]([C@@H](C)O)NC(=O)[C@H](CO)NC(=O)CNC(=O)[C@H]([C@@H](C)O)NC1=O` [SPACE peptide] (HELM PEPTIDE1{A.C.T.G.S.T.Q.H.Q.C.G}$PEPTIDE1,PEPTIDE1,2:R3-10:R3$$$V2.0; N-terminus and C-terminus assumed), the “penetration/localization in human skin observed from the top” value in data set [2] is on record as “high localization of the SPACE peptide within the corneocytes”. Also, in data set [3] (mouse, in vivo), the “penetration into mouse skin in vivo after 30 minutes” value is “resulted in penetration”; the “penetration into mouse skin in vivo after two hours” value is “significant penetration into the skin and localization in the deep dermis”. Further, the “effect on inulin permeability” value in data set [4] is given as “only a modest increase”. Besides, the “toxicity to cells (MTT)” value in data set [5] was “not toxic”.
Consider “Streptavidin not conjugated to SPACE peptide: streptavidin-Alexa Fluor 488 conjugate (Invitrogen) alone”, for which, in data set [6], the “penetration of Alexa Fluor 488 streptavidin into porcine skin” value is listed as “minimal penetration into epidermis”.
Take “5′-GACGUAAACGGCCACAAGUUC N6-3′ (GACGUAAACGGCCACAAGUUC; siRNA; 3' N6 group, conjugated to fluorescently labeled peptide by EDC chemistry, further chemistry not given here) [siRNA alone, GFP siRNA (Dharmacon)]”: the “knockdown of GFP” value in data set [7] (1 μM siRNA, 48 hours) was “no significant knockdown”. The “knockdown of GFP when complexed with Lipofectamine” value in data set [7] (complexed with Lipofectamine, compared to no siRNA treatment) is on record as “knockdown was significant”.
